Read-outs that look alike come from different tables or passages of the source.
What was measured:
Type in all cases: biochemical
ABL (Q252H) = ABL (Q252H) (Homo sapiens, UniProt P00519, Q252H); assay: Activity against various protein tyrosine kinases: ABL (Q252H); conditions: for inhibition at 0.01 µM: read-out: % Inhibition at 10 nM; for inhibition at 1 µM: read-out: % Inhibition at 1 μM
Method: (§1) Using techniques know those of ordinary skill in the art, compounds were tested for activity against various protein tyrosine kinases.

BTK = BTK (Homo sapiens, UniProt Q06187); assay: Activity against various protein tyrosine kinases: BTK; conditions: for inhibition at 0.01 µM: 10 nM
Method: as §1

EGFR = EGFR (Homo sapiens, UniProt P00533); assay: Activity against various protein tyrosine kinases: EGFR; conditions: for inhibition at 0.01 µM: 10 nM
EGFR, sequence (P00533 25-1210, species assumed): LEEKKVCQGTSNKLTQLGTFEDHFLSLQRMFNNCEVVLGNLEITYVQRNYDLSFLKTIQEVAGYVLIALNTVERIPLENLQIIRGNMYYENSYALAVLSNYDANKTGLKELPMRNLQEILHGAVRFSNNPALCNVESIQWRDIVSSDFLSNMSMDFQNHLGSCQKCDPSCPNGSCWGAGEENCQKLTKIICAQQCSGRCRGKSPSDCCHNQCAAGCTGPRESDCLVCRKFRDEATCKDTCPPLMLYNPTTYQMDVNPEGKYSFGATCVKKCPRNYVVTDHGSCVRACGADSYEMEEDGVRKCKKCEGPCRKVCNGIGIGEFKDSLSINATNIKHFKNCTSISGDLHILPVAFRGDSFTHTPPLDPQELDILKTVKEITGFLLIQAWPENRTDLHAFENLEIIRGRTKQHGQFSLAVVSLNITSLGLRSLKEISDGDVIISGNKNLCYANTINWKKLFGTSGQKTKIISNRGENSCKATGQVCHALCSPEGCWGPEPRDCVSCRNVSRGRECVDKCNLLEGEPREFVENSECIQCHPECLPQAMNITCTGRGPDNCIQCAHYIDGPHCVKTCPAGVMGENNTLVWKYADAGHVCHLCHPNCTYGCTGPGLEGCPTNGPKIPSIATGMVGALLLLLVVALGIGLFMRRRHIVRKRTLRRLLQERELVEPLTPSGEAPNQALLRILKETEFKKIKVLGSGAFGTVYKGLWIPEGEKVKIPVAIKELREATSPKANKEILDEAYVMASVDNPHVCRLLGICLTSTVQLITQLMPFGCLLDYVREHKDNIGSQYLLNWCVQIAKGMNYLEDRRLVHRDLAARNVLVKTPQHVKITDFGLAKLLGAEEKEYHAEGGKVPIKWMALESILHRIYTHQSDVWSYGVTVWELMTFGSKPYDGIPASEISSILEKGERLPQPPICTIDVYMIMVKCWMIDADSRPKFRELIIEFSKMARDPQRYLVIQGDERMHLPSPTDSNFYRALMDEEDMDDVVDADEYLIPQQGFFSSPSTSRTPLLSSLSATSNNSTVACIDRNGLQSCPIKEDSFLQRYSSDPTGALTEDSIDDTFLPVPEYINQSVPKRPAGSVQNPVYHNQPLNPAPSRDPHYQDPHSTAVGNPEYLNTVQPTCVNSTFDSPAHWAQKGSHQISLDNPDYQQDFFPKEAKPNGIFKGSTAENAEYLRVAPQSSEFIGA
Method: as §1

p38-delta = biological target: T1, p38-delta (Homo sapiens, UniProt O15264); assay: Activity against various protein tyrosine kinases: p38-delta; conditions: for inhibition at 0.01 µM: 10 nM
T1 sequence (O15264 1-365): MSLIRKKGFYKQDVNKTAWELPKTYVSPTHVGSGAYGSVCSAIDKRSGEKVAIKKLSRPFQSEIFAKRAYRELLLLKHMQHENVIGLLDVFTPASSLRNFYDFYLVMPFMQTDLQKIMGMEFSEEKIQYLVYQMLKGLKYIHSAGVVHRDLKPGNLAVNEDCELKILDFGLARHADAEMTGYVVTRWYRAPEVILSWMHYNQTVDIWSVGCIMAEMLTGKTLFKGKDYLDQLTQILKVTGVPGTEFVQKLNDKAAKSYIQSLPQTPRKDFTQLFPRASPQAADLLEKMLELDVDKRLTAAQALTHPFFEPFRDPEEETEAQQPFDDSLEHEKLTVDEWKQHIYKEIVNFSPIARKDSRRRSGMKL
Method: as §1

FYN = FYN (Homo sapiens, UniProt P06241); assay: Activity against various protein tyrosine kinases: FYN; conditions: for inhibition at 0.01 µM: 10 nM
FYN, sequence (P06241 whole entry, species assumed): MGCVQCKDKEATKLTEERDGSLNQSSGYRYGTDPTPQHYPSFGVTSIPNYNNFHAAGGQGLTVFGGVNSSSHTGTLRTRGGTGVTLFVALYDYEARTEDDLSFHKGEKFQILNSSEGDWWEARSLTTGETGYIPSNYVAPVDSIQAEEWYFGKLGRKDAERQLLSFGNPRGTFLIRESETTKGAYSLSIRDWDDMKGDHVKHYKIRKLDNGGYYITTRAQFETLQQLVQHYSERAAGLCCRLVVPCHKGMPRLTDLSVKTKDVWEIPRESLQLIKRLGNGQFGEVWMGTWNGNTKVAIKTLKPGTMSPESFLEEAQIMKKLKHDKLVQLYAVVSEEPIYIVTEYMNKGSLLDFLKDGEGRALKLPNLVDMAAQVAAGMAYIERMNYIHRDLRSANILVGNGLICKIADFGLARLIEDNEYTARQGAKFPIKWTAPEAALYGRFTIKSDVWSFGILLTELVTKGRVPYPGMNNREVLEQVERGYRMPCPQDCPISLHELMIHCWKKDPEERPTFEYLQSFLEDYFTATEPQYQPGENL
Method: as §1

YES = YES (Homo sapiens, UniProt P07947); assay: Activity against various protein tyrosine kinases: YES; conditions: for inhibition at 0.01 µM: 10 nM
YES, sequence (P07947 whole entry, species assumed): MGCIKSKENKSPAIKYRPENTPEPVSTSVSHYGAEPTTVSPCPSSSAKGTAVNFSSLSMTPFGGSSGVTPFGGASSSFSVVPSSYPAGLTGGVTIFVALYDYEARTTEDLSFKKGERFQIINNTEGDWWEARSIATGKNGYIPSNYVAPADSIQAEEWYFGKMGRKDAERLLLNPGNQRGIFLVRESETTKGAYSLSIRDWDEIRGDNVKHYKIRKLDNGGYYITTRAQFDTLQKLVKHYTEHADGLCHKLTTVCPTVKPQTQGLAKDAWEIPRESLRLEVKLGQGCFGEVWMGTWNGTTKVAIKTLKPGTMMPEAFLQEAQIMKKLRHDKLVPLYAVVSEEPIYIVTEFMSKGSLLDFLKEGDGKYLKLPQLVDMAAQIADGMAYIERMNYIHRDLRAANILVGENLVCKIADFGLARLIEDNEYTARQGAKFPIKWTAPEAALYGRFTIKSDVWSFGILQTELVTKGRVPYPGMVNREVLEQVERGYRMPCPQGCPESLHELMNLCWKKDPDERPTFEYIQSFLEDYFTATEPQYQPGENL
Method: as §1

SRC = SRC (Homo sapiens, UniProt P12931); assay: Activity against various protein tyrosine kinases: SRC; conditions: for inhibition at 0.01 µM: 10 nM
Method: as §1

LYN = LYN (Homo sapiens, UniProt P07948); assay: Activity against various protein tyrosine kinases: LYN; conditions: for inhibition at 0.01 µM: 10 nM
LYN, sequence (P07948 whole entry, species assumed): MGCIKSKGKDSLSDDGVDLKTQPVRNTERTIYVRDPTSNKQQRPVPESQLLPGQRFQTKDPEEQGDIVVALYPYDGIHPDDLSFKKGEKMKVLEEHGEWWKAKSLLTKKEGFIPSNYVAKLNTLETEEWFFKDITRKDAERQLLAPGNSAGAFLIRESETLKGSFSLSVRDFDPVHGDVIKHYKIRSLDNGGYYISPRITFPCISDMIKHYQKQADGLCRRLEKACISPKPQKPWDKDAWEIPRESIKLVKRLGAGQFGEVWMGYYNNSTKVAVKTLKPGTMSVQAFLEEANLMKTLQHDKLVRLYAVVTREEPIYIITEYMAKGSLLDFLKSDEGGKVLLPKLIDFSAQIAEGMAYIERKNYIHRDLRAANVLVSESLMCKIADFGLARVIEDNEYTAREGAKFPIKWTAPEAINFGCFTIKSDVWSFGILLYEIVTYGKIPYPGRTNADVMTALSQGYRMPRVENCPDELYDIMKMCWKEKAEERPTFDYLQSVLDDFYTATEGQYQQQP
Method: as §1

AurC = biological target: T2, AurC (Homo sapiens, UniProt Q9UQB9); assay: Activity against various protein tyrosine kinases: AurC; conditions: for inhibition at 0.01 µM: 10 nM
T2 sequence (Q9UQB9 1-309): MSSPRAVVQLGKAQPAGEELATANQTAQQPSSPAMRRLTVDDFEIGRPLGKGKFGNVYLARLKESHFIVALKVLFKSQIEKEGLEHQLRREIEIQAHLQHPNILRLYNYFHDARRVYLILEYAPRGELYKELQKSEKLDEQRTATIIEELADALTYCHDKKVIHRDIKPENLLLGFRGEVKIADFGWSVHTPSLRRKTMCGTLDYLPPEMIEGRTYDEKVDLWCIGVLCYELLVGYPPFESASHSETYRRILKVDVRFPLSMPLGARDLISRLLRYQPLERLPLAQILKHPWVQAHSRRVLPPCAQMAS
Method: as §1

EPHA2 = EPHA2 (Homo sapiens, UniProt P29317); assay: Activity against various protein tyrosine kinases: EPHA2; conditions: for inhibition at 0.01 µM: 10 nM
Method: as §1

PDGFR_beta = PDGFR_beta (Homo sapiens, UniProt P09619); assay: Activity against various protein tyrosine kinases: PDGFR_beta; conditions: for inhibition at 0.01 µM: 10 nM
Method: as §1

FGFR3 = FGFR3 (Homo sapiens, UniProt P22607); assay: Activity against various protein tyrosine kinases: FGFR3; conditions: for inhibition at 0.01 µM: 10 nM
Method: as §1

LCK = LCK (Homo sapiens, UniProt P06239); assay: Activity against various protein tyrosine kinases: LCK; conditions: for inhibition at 0.01 µM: 10 nM
Method: as §1

FGFR1 = FGFR1 (Homo sapiens, UniProt P11362); assay: Activity against various protein tyrosine kinases: FGFR1; conditions: for inhibition at 0.01 µM: 10 nM
FGFR1, sequence (P11362 22-822, species assumed): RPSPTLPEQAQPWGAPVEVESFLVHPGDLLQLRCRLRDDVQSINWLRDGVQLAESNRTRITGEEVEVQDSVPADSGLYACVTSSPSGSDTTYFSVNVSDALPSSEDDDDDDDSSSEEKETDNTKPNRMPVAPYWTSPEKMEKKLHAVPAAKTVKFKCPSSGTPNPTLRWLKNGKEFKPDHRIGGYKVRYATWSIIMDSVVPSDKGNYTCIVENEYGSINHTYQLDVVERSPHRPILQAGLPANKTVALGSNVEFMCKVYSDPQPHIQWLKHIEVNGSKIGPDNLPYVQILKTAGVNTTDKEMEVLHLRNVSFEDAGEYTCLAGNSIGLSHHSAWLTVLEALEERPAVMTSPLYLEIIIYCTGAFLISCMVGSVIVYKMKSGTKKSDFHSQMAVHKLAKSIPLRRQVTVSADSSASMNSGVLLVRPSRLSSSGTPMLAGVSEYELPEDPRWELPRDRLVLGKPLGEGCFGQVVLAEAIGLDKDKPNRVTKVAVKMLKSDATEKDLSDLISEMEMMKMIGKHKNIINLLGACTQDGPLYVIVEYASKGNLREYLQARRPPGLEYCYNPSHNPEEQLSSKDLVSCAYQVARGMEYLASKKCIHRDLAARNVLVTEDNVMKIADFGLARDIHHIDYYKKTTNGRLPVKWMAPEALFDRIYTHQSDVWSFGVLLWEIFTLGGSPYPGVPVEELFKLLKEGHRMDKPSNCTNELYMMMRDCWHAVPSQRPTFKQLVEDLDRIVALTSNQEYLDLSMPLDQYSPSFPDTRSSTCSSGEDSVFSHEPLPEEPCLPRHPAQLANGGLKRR
Method: as §1

INSR = INSR (Homo sapiens, UniProt P06213); assay: Activity against various protein tyrosine kinases: INSR; conditions: for inhibition at 0.01 µM: 10 nM
INSR, sequence (P06213 28-1382, species assumed): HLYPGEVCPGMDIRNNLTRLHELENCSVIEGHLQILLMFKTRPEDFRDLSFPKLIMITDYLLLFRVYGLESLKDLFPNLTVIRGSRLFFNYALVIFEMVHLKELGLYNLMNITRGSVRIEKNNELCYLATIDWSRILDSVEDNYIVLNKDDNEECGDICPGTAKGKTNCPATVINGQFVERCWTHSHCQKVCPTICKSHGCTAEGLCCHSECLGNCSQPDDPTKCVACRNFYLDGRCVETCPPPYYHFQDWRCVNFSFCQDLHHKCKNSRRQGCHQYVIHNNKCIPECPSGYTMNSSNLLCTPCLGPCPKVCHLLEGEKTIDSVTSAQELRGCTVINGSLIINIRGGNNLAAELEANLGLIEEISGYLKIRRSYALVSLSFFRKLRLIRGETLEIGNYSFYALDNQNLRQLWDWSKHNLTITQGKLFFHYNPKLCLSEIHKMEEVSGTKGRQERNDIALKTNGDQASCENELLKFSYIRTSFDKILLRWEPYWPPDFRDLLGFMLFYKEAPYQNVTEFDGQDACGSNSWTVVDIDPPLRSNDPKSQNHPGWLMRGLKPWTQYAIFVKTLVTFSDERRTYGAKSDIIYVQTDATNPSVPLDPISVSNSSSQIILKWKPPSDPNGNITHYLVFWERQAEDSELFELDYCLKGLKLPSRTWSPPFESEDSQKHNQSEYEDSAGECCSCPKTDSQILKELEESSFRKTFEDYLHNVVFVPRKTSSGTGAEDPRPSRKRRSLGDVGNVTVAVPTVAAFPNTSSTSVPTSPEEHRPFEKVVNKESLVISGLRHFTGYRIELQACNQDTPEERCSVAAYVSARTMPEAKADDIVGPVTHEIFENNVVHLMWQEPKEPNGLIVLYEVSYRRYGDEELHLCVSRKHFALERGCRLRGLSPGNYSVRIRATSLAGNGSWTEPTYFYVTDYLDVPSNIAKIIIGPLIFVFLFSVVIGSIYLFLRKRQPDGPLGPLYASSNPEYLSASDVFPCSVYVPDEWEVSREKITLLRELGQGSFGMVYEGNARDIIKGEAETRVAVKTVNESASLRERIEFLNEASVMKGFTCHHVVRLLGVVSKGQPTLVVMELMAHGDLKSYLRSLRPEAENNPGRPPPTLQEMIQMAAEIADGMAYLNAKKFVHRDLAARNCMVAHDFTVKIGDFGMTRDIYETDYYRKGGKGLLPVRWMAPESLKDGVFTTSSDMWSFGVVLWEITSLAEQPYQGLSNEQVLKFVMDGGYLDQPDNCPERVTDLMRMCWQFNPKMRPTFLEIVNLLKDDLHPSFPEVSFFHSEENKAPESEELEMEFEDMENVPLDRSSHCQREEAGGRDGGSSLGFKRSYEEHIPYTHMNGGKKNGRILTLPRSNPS
Method: as §1

Flt3 (D835Y) = biological target: T3, Flt3 (D835Y) (Homo sapiens, UniProt P36888, D835Y); assay: Activity against various protein tyrosine kinases: Flt3 (D835Y); conditions: for inhibition at 0.01 µM: 10 nM
T3 sequence (P36888 27-993 D835Y): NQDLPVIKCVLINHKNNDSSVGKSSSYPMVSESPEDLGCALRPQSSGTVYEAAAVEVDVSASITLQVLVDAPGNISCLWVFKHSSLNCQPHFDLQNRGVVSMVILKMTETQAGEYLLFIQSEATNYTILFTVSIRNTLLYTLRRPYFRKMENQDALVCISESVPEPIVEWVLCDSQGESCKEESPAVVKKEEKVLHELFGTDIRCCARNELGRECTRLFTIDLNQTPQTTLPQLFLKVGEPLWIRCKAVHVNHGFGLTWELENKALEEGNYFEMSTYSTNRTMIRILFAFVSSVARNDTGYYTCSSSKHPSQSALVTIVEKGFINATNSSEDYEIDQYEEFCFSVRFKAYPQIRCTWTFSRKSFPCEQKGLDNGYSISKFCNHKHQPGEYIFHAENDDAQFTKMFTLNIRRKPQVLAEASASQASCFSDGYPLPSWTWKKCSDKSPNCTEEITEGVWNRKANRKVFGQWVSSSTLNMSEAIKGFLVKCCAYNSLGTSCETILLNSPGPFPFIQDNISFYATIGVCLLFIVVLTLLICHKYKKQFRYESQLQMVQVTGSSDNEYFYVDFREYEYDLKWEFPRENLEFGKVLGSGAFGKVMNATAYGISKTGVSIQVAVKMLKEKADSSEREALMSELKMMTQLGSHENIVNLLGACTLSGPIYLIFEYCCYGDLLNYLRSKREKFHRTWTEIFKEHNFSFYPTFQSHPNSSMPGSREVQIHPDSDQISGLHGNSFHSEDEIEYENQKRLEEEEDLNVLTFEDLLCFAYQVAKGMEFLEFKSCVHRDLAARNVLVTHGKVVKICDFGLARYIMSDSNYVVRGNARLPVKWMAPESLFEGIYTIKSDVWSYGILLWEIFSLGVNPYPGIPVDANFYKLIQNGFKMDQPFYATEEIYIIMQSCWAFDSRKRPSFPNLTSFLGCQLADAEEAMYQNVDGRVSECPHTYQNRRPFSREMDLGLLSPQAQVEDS
Method: as §1

`COCCOCCOCCNC(=O)OCCN1CCN(c2cc(Nc3ncc(C(=O)Nc4c(C)cccc4Cl)s3)nc(C)n2)CC1` [mPEG3-NHCOO-Dasatinib] gave an inhibition at 0.01 µM (ABL (Q252H)) of 98%, an inhibition at 1 µM (ABL (Q252H)) of 99% and an inhibition at 0.01 µM (BTK) of 99%. The inhibition at 1 µM (BTK) was 100%, the inhibition at 0.01 µM (EGFR) was 3% and the inhibition at 1 µM (EGFR) was 76%. For the same molecule, the inhibition at 0.01 µM (p38-delta) was 0%, the inhibition at 1 µM (p38-delta) was 2% and the inhibition at 0.01 µM (FYN) was 98%. It also gave an inhibition at 1 µM (FYN) of 99%, an inhibition at 0.01 µM (YES) of 100% and an inhibition at 1 µM (YES) of 100%. The inhibition at 0.01 µM (SRC) was 99%, the inhibition at 1 µM (SRC) was 99% and the inhibition at 0.01 µM (LYN) was 99%. It also gave an inhibition at 1 µM (LYN) of 99%, an inhibition at 0.01 µM (AurC) of -1% and an inhibition at 1 µM (AurC) of 0%. For the same molecule, the inhibition at 0.01 µM (EPHA2) was 40%, the inhibition at 1 µM (EPHA2) was 100% and the inhibition at 0.01 µM (PDGFR_beta) was 48%. It also gave an inhibition at 1 µM (PDGFR_beta) of 99%, an inhibition at 0.01 µM (FGFR3) of 3% and an inhibition at 1 µM (FGFR3) of 11%. For the same molecule, the inhibition at 0.01 µM (LCK) was 97%, the inhibition at 1 µM (LCK) was 98% and the inhibition at 0.01 µM (FGFR1) was 11%. The inhibition at 1 µM (FGFR1) was -3%, the inhibition at 0.01 µM (INSR) was 1% and the inhibition at 1 µM (INSR) was -1%. For the same molecule, the inhibition at 0.01 µM (Flt3 (D835Y)) was 6% and the inhibition at 1 µM (Flt3 (D835Y)) was 10%.
Molecule `COCCOCCOCCOCCOCCOCCOCCNC(=O)OCCN1CCN(c2cc(Nc3ncc(C(=O)Nc4c(C)cccc4Cl)s3)nc(C)n2)CC1` [mPEG7-NHCOO-Dasatinib] has an inhibition at 0.01 µM (ABL (Q252H); ABL (Q252H), 10 nM) of 99%, an inhibition at 1 µM (ABL (Q252H); ABL (Q252H), 1 μM) of 99% and an inhibition at 0.01 µM (BTK) of 99%. It also gave an inhibition at 1 µM (BTK) of 100%, an inhibition at 0.01 µM (EGFR) of 6% and an inhibition at 1 µM (EGFR) of 62%. The inhibition at 0.01 µM (p38-delta) was 0%, the inhibition at 1 µM (p38-delta) was 0% and the inhibition at 0.01 µM (FYN) was 98%. The inhibition at 1 µM (FYN) was 98%, the inhibition at 0.01 µM (YES) was 100% and the inhibition at 1 µM (YES) was 102%. The inhibition at 0.01 µM (SRC) was 98%, the inhibition at 1 µM (SRC) was 98% and the inhibition at 0.01 µM (LYN) was 98%. The inhibition at 1 µM (LYN) was 98%, the inhibition at 0.01 µM (AurC) was 0% and the inhibition at 1 µM (AurC) was 2%. It also gave an inhibition at 0.01 µM (EPHA2) of 36%, an inhibition at 1 µM (EPHA2) of 101% and an inhibition at 0.01 µM (PDGFR_beta) of 60%. The inhibition at 1 µM (PDGFR_beta) was 100%, the inhibition at 0.01 µM (FGFR3) was 2% and the inhibition at 1 µM (FGFR3) was 10%. It also gave an inhibition at 0.01 µM (LCK) of 98%, an inhibition at 1 µM (LCK) of 98% and an inhibition at 0.01 µM (FGFR1) of 2%. For the same molecule, the inhibition at 1 µM (FGFR1) was 3%, the inhibition at 0.01 µM (INSR) was 2% and the inhibition at 1 µM (INSR) was 3%. For the same molecule, the inhibition at 0.01 µM (Flt3 (D835Y)) was 3% and the inhibition at 1 µM (Flt3 (D835Y)) was 7%.

Reference: patent publication US20120094998A1, “Oligomer-Protein Tyrosine Kinase Inhibitor Conjugates” (Nektar Therapeutics, priority 2009, published 2012)
